Results as given in patent publication US8609399B2, “Reducing insoluble deposit formation in ethanol production” (Global Process Technologies, Inc., priority 2007, dated 2013).

Experiment: Solubility in Presence of Ethanol (temperature at which a precipitate became visible)
Assay type: physicochemical
Settings: 800 ppm Mg2+ and 3600 ppm phytic acid
Text: In the table, the water and ethanol columns indicate the temperature at which a precipitate became visible in a solution containing 800 ppm Mg^2+ and 3600 ppm phytic acid.

- Temperature (° C.; in 13% ethanol/87% water solution) at which a precipitate became visible (pH 4.35): 40 °C
- Temperature (° C.; in 100% water solution) at which a precipitate became visible (pH 4.52): 80 °C
- Temperature (° C.; in 13% ethanol/87% water solution) at which a precipitate became visible (pH 4.53): 30 °C
- Temperature (° C.; in 13% ethanol/87% water solution) at which a precipitate became visible (pH 4.6): 21 °C
- Temperature (° C.; in 100% water solution) at which a precipitate became visible (pH 4.97): 60 °C
- Temperature (° C.; in 100% water solution) at which a precipitate became visible (pH 5.36): 40 °C
- Temperature (° C.; in 100% water solution) at which a precipitate became visible (pH 5.6): 21 °C
Substance: magnesium phytate
